PubChem BioAssay (NCI)
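Briefly, cells in 96-well plates were exposed to five compound concentrations for 48 h, and endpoints were estimated by linear interpolation. GI50: concentration for 50% inhibition of growth. Definition used: TGI = concentration required for complete inhibition of growth.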

How the values were obtained:
Experiment in all cases: NCI-60 cell line screen, 48 h
[1] = test system: TK-10 renal
[2] = test system: MALME-3M melanoma
[3] = test system: A498 renal
[4] = test system: NCI/ADR-RES ovarian
[5] = test system: OVCAR-5 ovarian
[6] = test system: T-47D breast
[7] = test system: HCT-116 colon
[8] = test system: HCC-2998 colon
[9] = test system: OVCAR-8 ovarian
[10] = test system: HOP-92 NSCLC
[11] = test system: KM12 colon
[12] = test system: NCI-H226 lung
[13] = test system: UACC-62 melanoma
[14] = test system: SF-539 CNS
[15] = test system: PC-3 prostate
[16] = test system: MDA-MB-231 breast
[17] = test system: HL-60(TB) leukemia
[18] = test system: SR leukemia
[19] = test system: EKVX NSCLC
[20] = test system: RXF 393 renal
[21] = test system: NCI-H522 lung
[22] = test system: RPMI-8226 leukemia
[23] = test system: SK-MEL-2 melanoma
[24] = test system: A549 NSCLC
[25] = test system: SF-295 CNS
[26] = test system: HS 578T breast
[27] = test system: HOP-62 NSCLC
[28] = test system: SK-MEL-28 melanoma
[29] = test system: CCRF-CEM leukemia

Work on `COc1cc2c3c(cc4c5c(ccc4c3c1OC)OCO5)N(CCN(C)C)C2=O` yielded a GI50 [1] of 170 nM, a TGI [1] of 702 nM and a GI50 [2] of 64.2 nM. For the same molecule, the TGI [2] was 258 nM, the GI50 [3] was 77.6 nM and the TGI [3] was 299 nM. The GI50 [4] was 68.5 nM, the TGI [4] was 675 nM and the GI50 [5] was 133 nM. It also gave a TGI [5] of 907 nM, a GI50 [6] of 64.9 nM and a TGI [6] of 3050 nM. The GI50 [7] was 42.9 nM, the TGI [7] was 422 nM and the GI50 [8] was 85.8 nM. It also gave a TGI [8] of 295 nM, a GI50 [9] of 59.6 nM and a TGI [9] of 5980 nM. For the same molecule, the GI50 [10] was 60.9 nM, the TGI [10] was 561 nM and the GI50 [11] was 196 nM. The TGI [11] was 11700 nM, the GI50 [12] was 69.6 nM and the TGI [12] was 344 nM. It also gave a GI50 [13] of 56.7 nM, a TGI [13] of 229 nM and a GI50 [14] of 110 nM. The TGI [14] was 411 nM, the GI50 [15] was 157 nM and the TGI [15] was 4440 nM. The GI50 [16] was 249 nM, the TGI [16] was 1610 nM and the GI50 [17] was 22.6 nM. The TGI [17] was 118 nM, the GI50 [18] was 22.5 nM and the GI50 [19] was 104 nM. For the same molecule, the TGI [19] was 669 nM, the GI50 [20] was 89.4 nM and the TGI [20] was 264 nM. For the same molecule, the GI50 [21] was 101 nM, the TGI [21] was 599 nM and the GI50 [22] was 43.7 nM. For the same molecule, the TGI [22] was 517 nM, the GI50 [23] was 313 nM and the TGI [23] was 804 nM. The GI50 [24] was 13.3 nM, the TGI [24] was 385 nM and the GI50 [25] was 33.5 nM. For the same molecule, the TGI [25] was 229 nM, the GI50 [26] was 190 nM and the TGI [26] was 1280 nM. The GI50 [27] was 35.9 nM, the TGI [27] was 1620 nM and the GI50 [28] was 182 nM. It also gave a TGI [28] of 676 nM and a GI50 [29] of 28.1 nM.
